molecular target: mouse TRPM3α2 (mTRPM3) ion channel (Mus musculus (Mouse), UniProt J9SQF3); test: TRPM3 ion channel driven Ca2+ uptake, Fluo-4 AM assay, mTRPM3alpha2 overexpressing flip-in HEK293 cells stimulated with pregnenolone sulfate; type: cell-based; settings: PS (50 μM) stimulated, cpds. 500-599
Method: Part B Monitoring the TRPM3 Ion Channel Driven Ca^2+ Uptake.
In order to monitor the inhibition of the mouse TRPM3α2 (mTRPM3) ion channel by the compounds of the invention, a cellular system making use of an mTRPM3alpha2 or hTRPM3 overexpressing cell line (flip-in HEK293) was used. The TRPM3 channel was stimulated/opened with Pregnenolone sulfate (PS) (50 μM) which results in Ca^2+ influx.
For mTRPM3, the intracellular Ca^2+ was measured with a Calcium responsive dye. Fluor-4 AM ester (Invitrogen). Cells were cultured until a confluence of 80-90%, washed with Versene (Invitrogen) and detached from the surface by a short incubation with 0.05% Trypsin (Invitrogen). The trypsination process was stopped by the addition of complete cell culture medium (DMEM, glutamax, 10% FCS,NEAA,Pen-Strep). Cells were collected and resuspended in Krebs buffer without Calcium at RT.
Prior the cell seeding (±2000 cells/well into a black, 384 well plate (Greiner)) the diluted compound was added in the assay plate, together with the PS dissolved in Krebs buffer containing Calcium. […] Directly after cell addition the plates were read on an Envision fluorescence reader (Perkin Elmer) by an Excitation of 485 nm and emission at 535 nm.
Channel inhibition was calculated compared to a non-PS stimulated control versus a condition stimulated with PS (50 μM) with vehicle. The ability of the compounds of the invention to inhibit this activity was determined as: Percentage inhibition=[1-((RFU determined for sample with test compound present—RFU determined for sample with positive control inhibitor) divided by (RFU determined in the presence of vehicle—RFU determined for sample with positive control inhibitor))]*100.

mouse TRPM3α2 (mTRPM3) ion channel, sequence (J9SQF3 other isoform, or with tags, fused parts or gaps): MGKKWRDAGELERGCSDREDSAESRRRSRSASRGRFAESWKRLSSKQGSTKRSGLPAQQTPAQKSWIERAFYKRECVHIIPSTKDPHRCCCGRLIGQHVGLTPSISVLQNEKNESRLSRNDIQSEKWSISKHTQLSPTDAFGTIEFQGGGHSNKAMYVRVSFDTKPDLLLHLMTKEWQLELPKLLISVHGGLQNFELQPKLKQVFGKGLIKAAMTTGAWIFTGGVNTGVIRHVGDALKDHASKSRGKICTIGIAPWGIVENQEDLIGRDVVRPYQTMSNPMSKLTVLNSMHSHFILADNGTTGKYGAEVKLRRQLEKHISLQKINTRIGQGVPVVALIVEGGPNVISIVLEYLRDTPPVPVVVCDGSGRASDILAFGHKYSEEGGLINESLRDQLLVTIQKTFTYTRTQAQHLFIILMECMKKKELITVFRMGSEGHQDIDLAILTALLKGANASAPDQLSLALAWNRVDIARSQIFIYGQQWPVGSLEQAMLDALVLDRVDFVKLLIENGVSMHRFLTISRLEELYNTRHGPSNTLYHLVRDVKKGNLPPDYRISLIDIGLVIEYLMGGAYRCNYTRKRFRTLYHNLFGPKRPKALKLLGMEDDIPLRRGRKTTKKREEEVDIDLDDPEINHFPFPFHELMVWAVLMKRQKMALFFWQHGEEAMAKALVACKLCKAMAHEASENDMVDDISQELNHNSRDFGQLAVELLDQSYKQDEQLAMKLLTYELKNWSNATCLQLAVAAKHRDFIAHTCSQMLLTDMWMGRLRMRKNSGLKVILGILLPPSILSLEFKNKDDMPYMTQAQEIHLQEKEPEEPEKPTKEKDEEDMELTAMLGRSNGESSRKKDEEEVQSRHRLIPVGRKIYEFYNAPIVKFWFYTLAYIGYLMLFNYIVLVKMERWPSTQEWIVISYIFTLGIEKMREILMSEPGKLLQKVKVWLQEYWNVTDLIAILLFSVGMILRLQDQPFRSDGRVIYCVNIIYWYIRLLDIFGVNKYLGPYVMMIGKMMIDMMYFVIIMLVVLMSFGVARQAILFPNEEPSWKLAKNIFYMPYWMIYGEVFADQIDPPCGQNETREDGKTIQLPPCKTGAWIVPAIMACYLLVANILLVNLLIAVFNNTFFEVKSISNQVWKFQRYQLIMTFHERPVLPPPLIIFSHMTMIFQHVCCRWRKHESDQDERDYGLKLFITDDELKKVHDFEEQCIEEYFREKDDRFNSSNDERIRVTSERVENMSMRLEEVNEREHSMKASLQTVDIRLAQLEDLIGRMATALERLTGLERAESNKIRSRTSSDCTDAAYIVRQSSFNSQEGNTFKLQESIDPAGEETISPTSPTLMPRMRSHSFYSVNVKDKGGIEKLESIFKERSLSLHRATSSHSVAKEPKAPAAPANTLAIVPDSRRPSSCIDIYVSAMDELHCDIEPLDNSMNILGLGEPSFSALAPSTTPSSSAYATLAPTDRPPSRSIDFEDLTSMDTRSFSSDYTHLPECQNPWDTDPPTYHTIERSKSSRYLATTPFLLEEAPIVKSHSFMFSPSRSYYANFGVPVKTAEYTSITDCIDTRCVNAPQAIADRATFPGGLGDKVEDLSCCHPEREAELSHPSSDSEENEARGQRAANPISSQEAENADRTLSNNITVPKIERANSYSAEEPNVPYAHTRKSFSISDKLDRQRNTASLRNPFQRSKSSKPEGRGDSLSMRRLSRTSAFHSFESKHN

SMILES | IC50 [nM]
Cc1oc2ccc(OCc3cccnc3C(F)(F)F)cc2c1C(=O)NC1CCNCC1(F)F (single isomer, unassigned) [cpd 539-En 1] | 1000 to 20000
Cc1oc2ccc(OCc3cccnc3C(F)(F)F)cc2c1C(=O)NC1CCNCC1(F)F (single isomer, unassigned) [cpd 539-En 2] | < 1000
Cc1oc2ccc(OCc3cn(C)nn3)cc2c1C(=O)NC1CCNCC1(F)F (single isomer, unassigned) [cpd 540-En 1] | 1000 to 20000
Cc1oc2ccc(OCc3cn(C)nn3)cc2c1C(=O)NC1CCNCC1(F)F (single isomer, unassigned) [cpd 540-En 2] | > 20000
Cc1oc2ccc(OCc3cnnn3C)cc2c1C(=O)NC1CCNCC1(F)F (single isomer, unassigned) [cpd 541-En 1] | 1000 to 20000
Cc1oc2ccc(OCc3cnnn3C)cc2c1C(=O)NC1CCNCC1(F)F (single isomer, unassigned) [cpd 541-En 2] | > 20000
Cc1oc2ccc(OCc3ncn(C)n3)cc2c1C(=O)NC1CCNCC1(F)F (single isomer, unassigned) [cpd 542-En 1] | 1000 to 20000
Cc1oc2ccc(OCc3ncn(C)n3)cc2c1C(=O)NC1CCNCC1(F)F (single isomer, unassigned) [cpd 542-En 2] | > 20000
Cc1oc2ccc(OCc3ccnn3C)cc2c1C(=O)NC1CCNCC1(F)F (single isomer, unassigned) [cpd 543-En 1] | < 1000
Cc1oc2ccc(OCc3cccc(=O)n3C)cc2c1C(=O)NC1CCNCC1(F)F (single isomer, unassigned) [cpd 545-En 1] | 1000 to 20000
Cc1oc2ccc(OCc3cccnc3C(F)(F)F)cc2c1C(=O)NC1CCNCC1(F)F (single isomer, unassigned) [cpd 546-En 1] | < 1000
Cc1ncccc1COc1ccc2oc(C)c(C(=O)NC3CCNCC3(F)F)c2c1 (single isomer, unassigned) [cpd 547-En 1] | < 1000
Cc1nccc(COc2ccc3oc(C)c(C(=O)NC4CCNCC4(F)F)c3c2)n1 (single isomer, unassigned) [cpd 548-En 1] | 1000 to 20000
Cc1nccc(COc2ccc3oc(C)c(C(=O)NC4CCNCC4(F)F)c3c2)n1 (single isomer, unassigned) [cpd 548-En 2] | > 20000
Cc1ncc(COc2ccc3oc(C)c(C(=O)NC4CCNCC4(F)F)c3c2)s1 (single isomer, unassigned) [cpd 549-En 1] | < 1000
Cc1ncc(COc2ccc3oc(C)c(C(=O)NC4CCNCC4(F)F)c3c2)s1 (single isomer, unassigned) [cpd 549-En 2] | 1000 to 20000
Cc1oc2ccc(OCC3(C)COC3)cc2c1C(=O)NC1CCNCC1(F)F (single isomer, unassigned) [cpd 550-En 1] | 1000 to 20000
Cc1coc(COc2ccc3oc(C)c(C(=O)NC4CCNCC4(F)F)c3c2)n1 (single isomer, unassigned) [cpd 551-En 1] | < 1000
Cc1coc(COc2ccc3oc(C)c(C(=O)NC4CCNCC4(F)F)c3c2)n1 (single isomer, unassigned) [cpd 551-En 2] | 1000 to 20000
Cc1csc(COc2ccc3oc(C)c(C(=O)NC4CCNCC4(F)F)c3c2)n1 (single isomer, unassigned) [cpd 552-En 1] | < 1000
Cc1csc(COc2ccc3oc(C)c(C(=O)NC4CCNCC4(F)F)c3c2)n1 (single isomer, unassigned) [cpd 552-En 2] | 1000 to 20000
Cc1cc(COc2ccc3oc(C)c(C(=O)NC4CCNCC4(F)F)c3c2)no1 (single isomer, unassigned) [cpd 553-En 1] | < 1000
Cc1cc(COc2ccc3oc(C)c(C(=O)NC4CCNCC4(F)F)c3c2)no1 (single isomer, unassigned) [cpd 553-En 2] | 1000 to 20000
Cc1cnc(COc2ccc3oc(C)c(C(=O)NC4CCNCC4(F)F)c3c2)cn1 (single isomer, unassigned) [cpd 554-En 1] | < 1000
Cc1cnc(COc2ccc3oc(C)c(C(=O)NC4CCNCC4(F)F)c3c2)cn1 (single isomer, unassigned) [cpd 554-En 2] | > 20000
Cc1cnc(COc2ccc3oc(C)c(C(=O)NC4CCNCC4(F)F)c3c2)s1 (single isomer, unassigned) [cpd 555-En 1] | < 1000

SMILES | IC50 [nM]
Cc1cnc(COc2ccc3oc(C)c(C(=O)NC4CCNCC4(F)F)c3c2)s1 (single isomer, unassigned) [cpd 555-En 2] | 1000 to 20000
Cc1ccc(COc2ccc3oc(C)c(C(=O)NC4CCNCC4(F)F)c3c2)nn1 (single isomer, unassigned) [cpd 556-En 1] | 1000 to 20000
Cc1ccc(COc2ccc3oc(C)c(C(=O)NC4CCNCC4(F)F)c3c2)nn1 (single isomer, unassigned) [cpd 556-En 2] | > 20000
Cc1oc2ccc(OCc3cccnn3)cc2c1C(=O)NC1CCNCC1(F)F (single isomer, unassigned) [cpd 557-En 1] | < 1000
Cc1oc2ccc(OCc3cccnc3)cc2c1C(=O)NC1CCNCC1(F)F (single isomer, unassigned) [cpd 558-En 1] | < 1000
Cc1oc2ccc(OCc3ncccn3)cc2c1C(=O)NC1CCNCC1(F)F (single isomer, unassigned) [cpd 559-En 1] | 1000 to 20000
Cc1oc2ccc(OCc3ncccn3)cc2c1C(=O)NC1CCNCC1(F)F (single isomer, unassigned) [cpd 559-En 2] | > 20000
Cc1oc2ccc(OCc3nccs3)cc2c1C(=O)NC1CCNCC1(F)F (single isomer, unassigned) [cpd 560-En 1] | < 1000
Cc1oc2ccc(OCc3nccs3)cc2c1C(=O)NC1CCNCC1(F)F (single isomer, unassigned) [cpd 560-En 2] | < 1000
Cc1oc2ccc(OCc3cncs3)cc2c1C(=O)NC1CCNCC1(F)F (single isomer, unassigned) [cpd 561-En 1] | < 1000
Cc1ncsc1COc1ccc2oc(C)c(C(=O)NC3CCNCC3(F)F)c2c1F (single isomer, unassigned) [cpd 562-En 1] | < 1000
Cc1nc(C)c(COc2ccc3oc(C)c(C(=O)NC4CCNCC4(F)F)c3c2)s1 (single isomer, unassigned) [cpd 563-En 1] | < 1000
Cc1oc2ccc(OCc3cccnc3O)cc2c1C(=O)NC1CCNCC1(F)F (single isomer, unassigned) [cpd 564-En 1] | < 1000
COc1ncccc1COc1ccc2oc(C)c(C(=O)NC3CCNCC3(F)F)c2c1 (single isomer, unassigned) [cpd 565-En 1] | < 1000
COc1ncccc1COc1ccc2oc(C)c(C(=O)NC3CCNCC3(F)F)c2c1 (single isomer, unassigned) [cpd 565-En 2] | < 1000
Cc1oc2ccc(OCc3ncccc3F)cc2c1C(=O)NC1CCNCC1(F)F (single isomer, unassigned) [cpd 566-En 1] | < 1000
Cc1oc2ccc(OCc3ncccc3F)cc2c1C(=O)NC1CCNCC1(F)F (single isomer, unassigned) [cpd 566-En 2] | 1000 to 20000
Cc1oc2ccc(OCc3ccc(OCCO)cn3)cc2c1C(=O)NC1CCNCC1(F)F (single isomer, unassigned) [cpd 567-En 1] | > 20000
Cc1oc2ccc(OCc3ccc(F)cn3)cc2c1C(=O)NC1CCNCC1(F)F (single isomer, unassigned) [cpd 568-En 1] | < 1000
Cc1oc2ccc(OCc3ccc(F)cn3)cc2c1C(=O)NC1CCNCC1(F)F (single isomer, unassigned) [cpd 568-En 2] | 1000 to 20000
COc1cccc(COc2ccc3oc(C)c(C(=O)NC4CCNCC4(F)F)c3c2)n1 (single isomer, unassigned) [cpd 570-En 1] | < 1000
COc1cccc(COc2ccc3oc(C)c(C(=O)NC4CCNCC4(F)F)c3c2)n1 (single isomer, unassigned) [cpd 570-En 2] | 1000 to 20000
Cc1oc2ccc(OCc3ccc4nccn4c3)cc2c1C(=O)NC1CCNCC1(F)F (single isomer, unassigned) [cpd 571-En 1] | 1000 to 20000
Cc1ncsc1COc1cc2c(C(=O)NC3CCNCC3(F)F)c(C)oc2cc1F (single isomer, unassigned) [cpd 572-En 1] | < 1000
Cc1ncsc1COc1cc(F)c2oc(C)c(C(=O)NC3CCNCC3(F)F)c2c1 (single isomer, unassigned) [cpd 573-En 1] | < 1000
Cc1ncsc1COc1cc(F)c2oc(C)c(C(=O)NC3CCNCC3(F)F)c2c1 (single isomer, unassigned) [cpd 573-En 2] | 1000 to 20000

same assay, conditions: PS (50 μM) stimulated, cpds. 608-666

SMILES | IC50 [nM]
Cc1oc2ccc(OCc3nccn3C)cc2c1C(=O)NC1CNCCC1(F)F (single isomer, unassigned) [cpd 635-En 1] | < 1000
Cc1oc2ccc(OCc3nccn3C)cc2c1C(=O)NC1CNCCC1(F)F (single isomer, unassigned) [cpd 635-En 2] | 1000 to 20000
Cc1oc2ccc(OCc3ccnn3C)cc2c1C(=O)NC1CNCCC1(F)F (single isomer, unassigned) [cpd 636-En 1] | < 1000
Cc1oc2ccc(OCc3cccnc3O)cc2c1C(=O)NC1CNCCC1(F)F (single isomer, unassigned) [cpd 637-En 1] | < 1000

Reference: patent US12209081B2 (Katholieke Universiteit Leuven, priority 2020, dated 2025)
